# According to patent US20070021484A1, “Substituted N-cinnamyl benzamides” (ChemoCentryx, Inc., priority 2005, published 2007):
# Where a name gives a salt, the structure may show the parent alone.
# Molecular target: T1, CCXCKR2 receptor (Homo sapiens, UniProt P25106)
# T1 construct: The compounds were combined with mammary gland cells expressing the CCXCKR2 receptor in the presence of the ^125I-labeled chemokine; host or cells: MCF-7 (endogenous receptor) and/or MDA-MB-435S stably transfected with pcDNA3.1(+)-hRDC1
# T1 sequence (P25106 whole entry): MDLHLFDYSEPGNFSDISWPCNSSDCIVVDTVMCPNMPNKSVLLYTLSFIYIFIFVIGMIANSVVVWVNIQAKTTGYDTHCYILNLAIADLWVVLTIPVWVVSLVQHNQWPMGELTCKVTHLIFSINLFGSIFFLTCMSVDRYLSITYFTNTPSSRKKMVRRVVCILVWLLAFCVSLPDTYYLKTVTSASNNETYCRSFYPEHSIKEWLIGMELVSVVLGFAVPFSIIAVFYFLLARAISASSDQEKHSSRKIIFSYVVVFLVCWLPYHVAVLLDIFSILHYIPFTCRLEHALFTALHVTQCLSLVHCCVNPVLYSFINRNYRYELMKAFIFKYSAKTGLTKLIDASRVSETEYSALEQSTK
# Test: Displacement of 125I-labeled SDF-1 from the CCXCKR2 receptor (radioligand binding, determination of IC50 values)
# Conditions: concentration displacing at least 50% of 125I SDF-1 from CCXCKR2; MCF-7 and/or CCXCKR2 transfected MDA-MB-435S cells; 3 hr at 4° C.
# Experimental: The ability of the compounds to displace the labeled chemokine from the CCXCKR2 receptor sites at multiple concentrations was then determined with the screening process.
# Compounds that were deemed effective modulators were able to displace at least 50% of the SDF-1 from the CCXCKR2 receptor at concentrations at or below 2.1 micromolar (μM), as represented by the notation (+) for certain exemplary compounds shown in Table B below, and more preferably at concentrations at or below 700 nanomolar (nM) (++). At present, especially preferred compounds can displace at least 50% of the SDF-1 from the CCXCKR2 receptor at concentrations at or below 500 nM (+++). As stated above, Exemplary compounds that met these criteria are reproduced in Table B below. All compounds were prepared as described in the Examples above, or by related methods substituting readily available starting materials.
# Reagents and Cells. ^125I-labeled SDF-1 was purchased from Perkin-Elmer Life Sciences, Inc. (Boston, Mass.). The MCF-7 (adenocarcinoma; mammary gland) cell line was obtained from the American Type Culture Collection (Manassas, Va.) or and was cultured in DMEM (Mediatech, Herndon, Va.) supplemented with 10% fetal bovine serum (FBS) (HyClone Logan, Utah) and bovine insulin (0.01 mg/mL) (Sigma, St. Louis, Mo.) at 37° C. in a humidified incubator at a 5% CO2/air mixture. CCXCKR2 transfected MDA-MB-435S were produced as described below. MDA-MB-435S human breast cancer line, was purchased from ATCC, and cultured in DMEM/10% FBS medium. The complete coding sequence of the gene encoding CCXCKR2 (a.k.a.CXCR^7, hRDC1), was isolated from MCF-7 cells using μMACs mRNA isolation kit (Miltenyi Biotec, Auburn, Calif.). DNA contamination was removed by DNase digestion via RNeasy columns (Qiagen, Inc., Valencia, Calif.) and cDNA was generated using GeneAmp RNA PCR Core Kit (Applied Biosystems, Foster City, Calif.). PCR of cDNA samples was performed using Taq PCR Master Mix kit (Qiagen, Inc.) and hRDC1 primers harboring 5′ and 3′ Not I sites
# Binding Analysis. Target compounds were tested to determine their ability to bind with CCXCKR2 sites on MCF-7 and/or MDA-MB-435S cells. Efficiency-maximized radioligand binding using filtration protocols as described in Dairaghi D J, et al., HHV8-encoded vMIP-I selectively engages chemokine receptor CCR5. Agonist and antagonist profiles of viral chemokines., J. Biol. Chem. 1999 Jul. 30; 274(31): 21569-74 and Gosling J, et al., Cutting edge: identification of a novel chemokine receptor that binds dendritic cell- and T cell-active chemokines including ELC, SLC, and TECK., J. Immunol. 2000 Mar. 15; 164(6):2851-6 was used.
# In these assays, MCF-7 and/or MDA-MB-435S cells were interrogated with the target compounds and the ability of these compounds to displace ^125I radiolabeled SDF-1 was assessed using the protocol described in Dairaghi and Gosling. The target compounds were added to the plate to the indicated concentration and were then incubated with cells followed by the addition of radiolabeled chemokine (^125I SDF-1) for 3 hr at 4° C. in the following binding medium (25 mM HEPES, 140 mM NaCl, 1 mM CaCl2, 5 mM MgCl2 and 0.2% bovine serum albumin, adjusted to pH 7.1). All assays were then incubated for 3 hrs at 4° C. with gentle agitation. Following incubation in all binding assays, reactions were aspirated onto PEI-treated GF/B glass filters (Packard) using a cell harvester (Packard) and washed twice (25 mM HEPES, 500 mM NaCl, 1 mM CaCl2, 5 mM MgCl2, adjusted to pH 7.1). Scintillant (MicroScint 10, Packard) was added to the wells, and the filters were counted in a Packard Topcount scintillation counter. Data were analyzed and plotted using Prism (GraphPad Prism version 3.0a for Macintosh, GraphPad Software, www.graphpad.com).
row,Compound,IC50
1,COc1cc(C(=O)N(C/C(C)=C/c2ccc(F)cc2F)C[C@@H]2CCCN2C[C@H]2CC[C@@H](NS(C)(=O)=O)CC2)ccc1OC(F)F [Compound 11],≤ 500 nM
2,"COc1ccc(C(=O)N(CC2=NCCN2)C/C(C)=C/c2ccc(F)cc2F)cc1OC [Compound 19, N-[(E)-3-(2,4-Difluoro-phenyl)-2-methyl-allyl]-N-(4,5-dihydro-1 H-imidazol-2-ylmethyl)-3,4-dimethoxy-benzamide hydrochloride]",≤ 500 nM
3,"COc1ccc(C(=O)N(C/C(C)=C/c2ccc(F)cc2F)C[C@@H]2CCCN2C[C@H]2CC[C@H](NS(C)(=O)=O)CC2)cc1OC [Compound 9, N-(S)-[(E)-3-(2,4-Difluoro-phenyl)-2-methyl-allyl]-N-[(S)-1-(4-methanesulfonylamino-cyclohexylmethyl)-pyrrolidin-2-ylmethyl]-3,4-dimethoxy-benzamide]",≤ 500 nM
4,"COc1cc(C(=O)N(C/C(C)=C/c2ccccc2)CC2CCCN2C[C@H]2CC[C@@H](NC(C)C)CC2)cc2c1OC(C)(C)O2 (stereo partly drawn) [Compound 6, Methoxy-2,2-dimethyl-benzo[1,3]dioxole-5-carboxylic acid [(S)-1-(4-isopropylamino-cyclohexylmethyl)-pyrrolidin-2-ylmethyl]-((E)-2-methyl-3-phenyl-allyl)-amide]",≤ 500 nM
5,"COc1cc(C(=O)N(C/C(C)=C/c2ccccc2)C[C@@H]2C[C@@H]3CCCC[C@@H]3N2)cc2c1OC(C)(C)O2 [Compound 1, 7-Methoxy-2,2-dimethyl-benzo[1,3]dioxole-5-carboxylic acid (2-methyl-3-phenyl-allyl)-[(2S,6S,7S)-1-(octahydro-indol-2-yl)methyl]-amide]",≤ 500 nM
6,COc1cc(C(=O)N(C/C(C)=C/c2ccc(F)cc2F)C[C@H]2CCCN2C[C@H]2CC[C@@H](N)CC2)ccc1OC(F)F [Compound 14],≤ 500 nM
7,"COc1cc(C(=O)N(C/C(C)=C/c2ccccc2)C[C@@H]2C[C@@H]3CCC[C@@H]3N2)cc2c1OC(C)(C)O2 [Compound 2, 7-Methoxy-2,2-dimethyl-benzo[1,3]dioxole-5-carboxylic acid (2-methyl-3-phenyl-allyl)-[(2S,5S,6S)-1-(octahydro-cyclopenta[b]pyrrol-2-yl)methyl]-amide]",≤ 500 nM
8,"COc1ccc(C(=O)N(C/C(C)=C/c2ccc(F)cc2F)C[C@@H]2C[C@@H]3CCCC[C@@H]3N2)cc1OC [Compound 5, N-[(E)-3-(2,4-Difluoro-phenyl)-2-methyl-allyl]-3,4-dimethoxy-N-[(2S,3aS,7aS)-1-(octahydro-indol-2-yl)methyl]-benzamide]",≤ 500 nM
9,"COc1cc(C(=O)N(C/C(C)=C/c2ccc(F)cc2F)C[C@@H]2CCCN2CC2(N(C)C)CCCC2)ccc1OC(F)F (stereo in doubt) [Compound 15, 4-Difluoromethoxy-N-[3-(2,4-difluoro-phenyl)-2-methyl-allyl]-N-[1-(1-dimethylamino-cyclopentylmethyl)-pyrrolidin-2-ylmethyl]-3-methoxy-benzamide]",≤ 500 nM
10,COc1ccc(C(=O)N(C/C(C)=C/c2ccc(F)cc2F)CC2CCC3COCCN32)cc1OC (stereo not drawn) [Compound 20],≤ 2100 nM
11,"COc1ccc(C(=O)N(C/C(C)=C/c2ccc(F)cc2F)C[C@@H]2CCCN2C[C@H]2CC[C@@H](N)C2)cc1OC [Compound 7, N-[(S)-1-((1S,3R)-3-Amino-cyclopentylmethyl)-pyrrolidin-2-ylmethyl]-N-[(E)-3-(2,4-difluoro-phenyl)-2-methyl-allyl]-3,4-dimethoxy-benzamide]",≤ 500 nM
12,"COc1ccc(C(=O)N(C/C(C)=C/c2ccc(F)cc2F)C[C@@H]2CCCN2C[C@H]2CC[C@@H](N)CC2)cc1OC [Compound 13, N-[1-(4-amino-cyclohexylmethyl)-pyrrolidin-2-ylmethyl]-N-[3-(2,4-difluoro-phenyl)-2-methyl-allyl]-3,4-dimethoxy-benzamide]",≤ 500 nM
13,"COc1cc(C(=O)N(C/C(C)=C/c2ccc(F)cc2F)CC2CCCN2CC2(N)CCCC2)ccc1OC(F)F (stereo not drawn) [Compound 16, N-[1-(1-Amino-cyclopentylmethyl)-pyrrolidin-2ylmethyl]-4-difluoromethoxy-N-[3-(2,4-difluoro-phenyl)-2-methyl-allyl]-3-methoxy-benzamide]",≤ 700 nM
14,"COc1ccc(C(=O)N(C/C(C)=C/c2ccc(F)cc2F)C[C@@H]2CCCN2CC2CCC(N)CC2)cc1OC (stereo partly drawn) [Compound 10, N-[(S)-1-(4-Amino-cyclohexylmethyl)-pyrrolidin-2-ylmethyl]-N-[(E)-3-(2,4-difluoro-phenyl)-2-methyl-allyl]-3,4-dimethoxy-benzamide]",≤ 500 nM
15,"COc1cc(C(=O)N(C/C(C)=C/c2ccc(F)cc2F)Cc2nccn2C)ccc1OC(F)F [Compound 18, 4-difluoromethoxy-N-[3-(2,4-difluoro-phenyl)-2-methyl-allyl]-3-methoxy-N-(1-methyl-1H-imidazol-2-ylmethyl)-benzamide]",≤ 2100 nM
16,"COc1cc(C(=O)N(C/C(C)=C/c2ccc(F)cc2F)C[C@@H]2C[C@@H]3CCCC[C@@H]3N2)ccc1OC(F)F [Compound 3, 4-Difluoromethoxy-N-[(E)-3-(2,4-difluoro-phenyl)-2-methyl-allyl]-3-methoxy-N-[(2S,3aS,7aS)-1-(octahydro-indol-2-yl)methyl]-benzamide]",≤ 500 nM
17,COc1cc(C(=O)N(C/C(C)=C/c2ccc(F)cc2F)CC2CCCN2CC2(NS(C)(=O)=O)CCCC2)ccc1OC(F)F (stereo not drawn) [Compound 17],≤ 500 nM
18,"COc1cc(C(=O)N(C/C(C)=C/c2ccc(F)cc2F)C[C@@H]2C[C@@H]3CCCC[C@@H]3N2)cc2c1OC(C)(C)O2 [Compound 4, 7-Methoxy-2,2-dimethyl-benzo[1,3]dioxole-5-carboxylic acid [(E)-3-(2,4-difluoro-phenyl)-2-methyl-allyl]-[(2S,3aS,7aS)-1-(octahydro-indol-2-yl)methyl]-amide]",≤ 500 nM
